# What was measured:
# [1] = system: human acute lymphoblastic leukemia RS4;11 mouse subcutaneous xenograft tumor; experiment: Therapeutic effect on RS4;11 mouse subcutaneous xenograft tumor; format: in vivo; details: NOD-Scid mice, RS4;11 xenograft; for Tolerability in tumor-bearing mice (weight loss) / Tumor rate TGI (%) inhibition: 10 mg/kg IV QW; for Tumor rate TGI (%) inhibition: D 20; for Mean tumor volume (mm^3) D 0: day 0, 10 mg/kg IV QW; for Mean tumor volume (mm^3) D 20: day 20, 10 mg/kg IV QW
# Procedure: This experiment was performed to evaluate and compare the therapeutic effect of the compounds of the present disclosure on human acute lymphoblastic leukemia RS4;11 mouse subcutaneous xenograft tumor.
# NOD-Scid mice, 5 weeks old, purchased from Beijing Huafukang Biotechnology Co., Ltd. Production license No.: SCXK (Beijing) 2019-0008; animal certification No.: 110322211100992176. Housing environment: SPF grade. 6 mice in a vehicle group, and 8 mice in a compound group.
# 5 mg of compound was added to 250 μL of DMSO and vortexed to provide a 20 mg/mL solution, which was diluted to the desired concentration with 30% hydroxypropyl-o-cyclodextrin (HP-3-CD, InnoStar Biotechnology Nantong Co., Ltd, Nantong).
# Human acute lymphoblastic leukemia RS4;11 was purchased from American Type Culture Collection. RS4;11 cells were cultured in a 10 cm petri dish with an RPMI 1640 culture medium (Gibco) containing 10% fetal bovine serum (Gibco) and penicillin and streptomycin in an incubator at 37° C. containing 5% CO2. The cells were passaged twice a week, and then collected, counted and inoculated when in the exponential growth phase.
# Each mouse was inoculated subcutaneously with 1×10^7 RS4;11 cells. When tumors grew to 100-200 mm^3, the mice were grouped according to tumor volume, intravenously (IV) injected with the drug once a week (QW) for a total of 4 times, at an injection volume of 0.1 mL/10 g body weight and a dose of 10 mg/kg.
# The experimental index was to investigate the influence of the drug on the tumor growth, and the specific index was T/C % or tumor growth inhibition (TGI %).
# Tumor diameters were measured twice a week with a vernier caliper and tumor volume (V) was calculated according to the following formula:
# V=½×a×b^2 where a and b represent length and width, respectively.
# T/C(%)=(T−T0)/(C−C0)×100,
# where T and C represent the tumor volume of animals at the end of the experiment in the treatment group and control group, respectively;
# T0 and C0 represent the tumor volume of animals at the beginning of the experiment in the treatment group and control group, respectively.
# Tumor growth inhibition % (TGI %)=100−T/C(%).
# When tumor started to regress, tumor growth inhibition % (TGI %)=100−(T−T0)/T0×100.
# If the tumor had reduced volume compared with the initial volume, i.e., T<T0 or C<C0, it was defined as partial regression (PR) of tumor; if the tumor completely disappeared, it was defined as complete regression (CR) of tumor.
# BCL-2 = target: T1, BCL-2 (Homo sapiens, UniProt P10415); experiment: Binding activity for BCL-2 (HTRF, biotin-labeled BIM); details: His-tagged BCL-2, biotin-labeled BIM
# T1 construct: purchased R&D systems 827-BC-050
# Procedure: In vitro BCL-2-binding activity was tested by the following method.
# Reagents used in this experiment: His-tagged BCL-2 protein (R&D systems, Cat #827-BC-050); biotin-labeled BIM protein (R&D, Cat #3526/1); binding buffer (cisbio, Cat #62DLBDDF); assay buffer (cisbio, Cat #62DB1FDG); MAb anti-6His-Eu cryptate (cisbio, Cat #61HI2KLA); and affinity streptomycin linked XL665 (cisbio, Cat #611SAXLA).
# The in vitro binding assay described below can determine the binding activity of test compounds for BCL-2.
# The test compounds were dissolved in dimethyl sulfoxide and diluted to gradient concentrations as required for the experiment, and the compounds at various concentrations formulated in dimethyl sulfoxide were subjected to a 100-fold dilution with a binding buffer. BCL-2 was diluted to the corresponding concentration with a binding buffer solution, and added to a white 384-well plate at 4 μL/well. Then the diluted test compound was added into the white 384-well plate at 2 μL/well. The plate was incubated at 25° C. for 1 h after the mixture was uniformly mixed. Biotin-labeled BIM protein was diluted to the corresponding concentration with a binding buffer, and added to a white 384-well plate at 4 μL/well. The plate was incubated at 25° C. for 2 h after the mixture was uniformly mixed. The MAb anti-6His-Eu cryptate and the affinity streptomycin linked XL665 were each diluted to the corresponding concentration with an assay buffer, and added to a white 384-well plate at 5 μL/well. The plate was incubated at 25° C. for 2-4 h after the mixture was uniformly mixed. The signal values were read with the HTRF program in a microplate reader (BMG Labtech, model: PHERAstar FS).
# RS4;11 cells = experiment: Inhibition of proliferation of RS4;11 cells (CellTiter-Glo); format: cell-based; details: Homo sapiens, 72 h, 3 days, read-out: Inhibitory activity IC50 (nM) for the proliferation of RS4;11 cells
# Procedure: In vitro inhibitory activity for the proliferation of RS4;11 cells and NCI-H146 cells was tested by the following method.
# Reagents used in this experiment: RPMI-1640 medium (HyCLone, Cat #SH30243018); fetal bovine serum (Gibco, Cat #10099-141); pancreatin (Gibco, Cat #25200-072); Cell Titer-Glo (Promega, Cat #G7571).
# Materials used: RS4;11 cells (Nanjing Kebai Biotechnology Co., Ltd, Cat #CBP60641); and NCI-H146 cells (ATCC, Cat #HTB-173).
# The in vitro cell proliferation assay described below can determine the inhibitory activity of the test compounds for the proliferation of RS4;11 cells and NCI-H146 cells.
# RS4;11 cells (or NCI-H146 cells) were cultured in an RPMI-1640 culture medium containing 10% FBS, and were passaged for 2-3 times a week in a passage ratio of 1:3 or 1:5. During passage, the cells were transferred to a centrifuge tube, and centrifuged at 1200 rpm for 3 min. The supernatant was discarded, and fresh culture medium was added to resuspend the cells. 90 μL of cell suspension was added to a 96-well cell culture plate, wherein RS4;11 cells and NCI-H146 cells were added at a density of 2.22×10^5 cells/mL. Only 100 μL of complete medium (RPMI-1640 medium containing 10% FBS) was added to the periphery of the 96-well plate. The plate was incubated in an incubator for 24 h (37° C., 5% CO2).
# The test sample was diluted to a proper concentration gradient with dimethyl sulfoxide as required for the experiment. 5 μL of the solution of the test compound prepared in a gradient concentration was added to 95 μL of fresh culture medium and mixed uniformly, and then 10 μL of the culture medium containing the above compound was added to a cell culture plate. The cell culture plate was incubated in an incubator for 3 days (37° C., 5% CO2). 50 μL of CellTiter-Glo reagent was added into each well of the 96-well cell culture plate. The plate was let stand for 5-10 min away from the light at room temperature. The chemiluminescence signals were read by a microplate reader (BMG Labtech, model: PHERAstar FS) and the data were processed by GraphPad software.
# T1 sequence (P10415 whole entry): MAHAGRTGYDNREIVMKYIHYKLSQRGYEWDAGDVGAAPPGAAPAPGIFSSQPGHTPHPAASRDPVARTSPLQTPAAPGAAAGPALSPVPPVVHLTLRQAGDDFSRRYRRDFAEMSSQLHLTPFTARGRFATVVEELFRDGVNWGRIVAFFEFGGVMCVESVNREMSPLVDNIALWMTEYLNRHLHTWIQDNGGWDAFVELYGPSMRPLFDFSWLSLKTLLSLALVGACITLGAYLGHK
Structure (SMILES),Tolerability in tumor-bearing mice (weight loss) [1],Tumor rate TGI (%) inhibition [1],Mean tumor volume (mm^3) D 0 [1],Mean tumor volume (mm^3) D 20 [1],Ki (BCL-2),IC50 (RS4;11 cells)
"O=C(NS(=O)(=O)c1ccc(N[C@@H](CSc2ccccc2)C[C@@H]2CCCN2CCO)c(S(=O)(=O)C(F)(F)F)c1)c1ccc(N2CCC([C@@H](O)c3ccccc3-c3ccc(Cl)cc3)CC2)cc1 [Example 2-9, 4-(4-((R)-(4′-chloro-[1,1′-biphenyl]-2-yl)(hydroxy)methyl)piperidin-1-yl)-N-((4-(((R)-1-((S)-1-(2-hydroxyethyl)pyrrolidin-2-yl)-3-(phenylthio)propan-2-yl)amino)-3-((trifluoromethyl)sulfonyl)phenyl)sulfonyl)benzamide]",well tolerate,72%,151.0 mm^3,612.7 mm^3,0.02 nM,1.8 nM
"CN(CCO)CC[C@H](CSc1ccccc1)Nc1ccc(S(=O)(=O)NC(=O)c2ccc(N3CCC([C@@H](O)c4ccccc4-c4ccc(C(F)(F)F)cc4)CC3)cc2)cc1S(=O)(=O)C(F)(F)F [Example 2-10, 4-(4-((R)-hydroxy(4′-(trifluoromethyl)-[1,1′-biphenyl]-2-yl)methyl)piperidin-1-yl)-N-((4-(((R)-4-((2-hydroxyethyl)(methyl)amino)-1-(phenylthio)butan-2-yl)amino)-3-((trifluoromethyl)sulfonyl)phenyl)sulfonyl)benzamide]",well tolerate,82%,151.9 mm^3,443.3 mm^3,0.03 nM,1 nM

# From patent US20230250077A1, “SULFONYLBENZAMIDE DERIVATIVE AND CONJUGATE THEREOF, PREPARATION METHOD THEREFOR AND USE THEREOF” (Jiangsu Hengrui Pharmaceuticals Co., Ltd., priority 2020, published 2023)
